Test results published in patent publication US8546395B2, “6-cycloamino-3-(1H-pyrrolo[2,3-b]pyridin-4-yl)imidazo[1,2-b]pyridazine derivatives, preparation thereof and therapeutic use thereof” (Sanofi, priority 2008, dated 2013).

Assays:
[1] = tested on: Mper1-luc Rat-1 (P2C4) fibroblasts; experiment: Circadian cell assay (mPer1-luciferase reporter, period prolongation); format: cell-based; details: effective concentration that induced a 1-hour prolongation of the circadian period, interpolated from hyperbolic curve
Procedure: Experimental Protocols for Circadian Cell Assay
Mper1-luc Rat-1 (P2C4) fibroblast cultures were prepared by dividing the cultures every 3-4 days (approximately 10-20% of confluence) on 150 cm^2 degassed polystyrene tissue culture flasks (Falcon® #35-5001) and maintained in growth medium [EMEM (Celigro #10-010-CV); 10% foetal bovine serum (FBS; Gibco #16000-044); and 50 I.U./ml of penicillin-streptomycin (Celigro #30-001-CI)] at 37° C. and under 5% CO2.
Cells obtained from Rat-1 fibroblast cultures at 30-50% of confluence as described above were co-transfected with vectors containing the selection marker for resistance to zeocin for a stable transfection and a luciferase reporter gene controlled by the mPer-1 promoter. After 24 to 48 hours, the cultures were divided on 96-well plates and maintained in growth medium supplemented with 50-100 μg/ml of zeocin (Invitrogen® #45-0430) for 10-14 days. The zeocin-resistant stable transfectants were evaluated for the expression of the reporter by adding 100 μM luciferin (Promega® #E1603®) to the growth medium and by assaying the luciferase activity on a TopCount scintillation counter (Packard Model #C384V00). The Rat-1 cell clones expressing both zeocin resistance and lucerifase activity controlled by mPer1 were serum-shock synchronized with 50% horse serum [HS (Gibco® #16050-122)] and the activity of the circadian reporter was evaluated. The P2C4 clone of Mper1-luc Rat-1 fibroblasts was selected to test the compound. Mper1-luc Rat-1 ([…]) fibroblasts at 40-50% of confluence, obtained according to the protocol described above, were plated out onto 96-well opaque tissue culture plates (Perkin Elmer® #6005680). […]
The period analysis was performed either by determining the interval between the relative light emission minima over several days or by Fourier transform. […] The data were analysed by adjusting a hyperbolic curve to the data expressed as change of period (y-axis) as a function of the concentration of the test compound (x-axis) in the XLfit™ software and the CE Delta (t+1 h) was interpolated from this curve.

- melting point: 261 to 264 °C
Structure (SMILES): Fc1ccc(-c2nc3ccc(N4CCC(N5CCCC5)CC4)nn3c2-c2ccnc3[nH]ccc23)cc1 [Compound 36, 2-(4-Fluorophenyl)-6-(4-pyrrolidin-1-ylpiperidin-1-yl)-3-(1H-pyrrolo[2,3-b]pyridin-4-yl)imidazo[1,2-b]pyridazine]
- CE Delta (t + 1 h) [1]: 1 to 7 nM
